The values below come from US12629364B2, “Methods of treating cancers overexpressing CARM1 with EZH2 inhibitors and platinum-based antineoplastic drugs” (The Wistar Institute of Anatomy and Biology, priority 2016, dated 2026).

The subject of assay [1] is CARM1-expressing cell lines (A1847, OVCAR10, and PEO4). The assay can be described thus: Colony formation assay / GSK126 response curves, CARM1-expressing ovarian cancer cell lines. The assay is classed as cell-based, Human. From the text:
FIG. 5 illustrates the results of a colony formation assay with a panel of normal and ovarian cancer cell lines in the presence of GSK126.
FIG. 7 illustrates GSK 126 response curves in a panel of normal and ovarian cancer cell lines. Error bars indicate standard error (S.E.) for n=3. *, p≤0.05.
FIG. 8 illustrates IC50 results for the panel of normal and ovarian cancer cell lines.
FIG. 33 illustrates relative growth of the indicated HOSE, FTE, and EOC cancer cell lines with high or low CARM1 expression treated with 10 μM GSK126 or vehicle in a colony formation assay as determined by NIH Image J quantification.
500 to 5,000 cell were plated into a 24 well tissue culture plate and treated with the indicated compounds. Medium was changed every three days with appropriate drug doses for 12 days or until control wells became confluent. Colonies were washed twice with PBS and fixed with 10% methanol and 10% acetic acid in distilled water. Fixed colonies were stained with 0.005% crystal violet. Integrated density was measured using NIH ImageJ software.

A further assay relates to CARM1-expressing tumors. The assay is described as follows: IHC and qRT-PCR of dissected CARM1-expressing tumors. The assay is classed as in vivo, NSG mice. Conditions: IHC. As to the method:
FIG. 79 illustrates immunohistochemical analysis for serial sections of tumors dissected from the indicated treatment groups where the tumor sections were stained for H3K27Me3, EZH2, cleaved caspase 3, and Ki67. Scale bar=50 μm.
FIG. 80 illustrates histological scoring (H-score) of the indicated proteins that was calculated for 3 separate fields from 5 tumors from 5 individual mice from each of the indicated groups.
FIG. 81 illustrates the expression of the indicated EZH2/BAF155 target genes that was determined by qRT-PCR in the tumors dissected from the indicated treatment groups.
A general note: Quantitative PCR measures a nucleic acid by following its amplification.

Assay [2] has as its system promoter regions of the human DAB2, DLC1, NOXA and TIMP3 genes. The assay is described as follows: ChIP-qPCR at target gene promoters. The settings on record: A1847 cells. The assay is classed as cell-based. The source says:
FIGS. 58 to 61 illustrate the results of a ChIP analysis using anti-EZH2 (FIG. 58), anti-H3K27Me3 (FIG. 59), anti-BAF155 (FIG. 60), or anti-RNA Pol II (FIG. 61) antibodies. An isotype matched IgG was used as a negative control. ChIP products were subjected to qPCR analysis using primers specific for the promoter regions of the human DAB2, DLC1, and NOXA genes. Data is representative of three independent experiments. *p<0.001 compared with IgG controls and #p<0.001 compared with parental controls.
FIGS. 62 to 65 illustrate the results of a ChIP analysis in parental control and CARM1 knockout A1847 cells treated with 10 μM GSK 126 or vehicle controls. The cells were subjected to ChIP analysis using anti-EZH2 (FIG. 62), anti-H3K27Me3 (FIG. 63), anti-BAF155 (FIG. 64), or anti-RNA Pol II (FIG. 65) antibodies. An isotype-matched IgG was used as a negative control. ChIP products were subjected to qPCR analysis using primers specific for the promoter regions of the human TIMP3 genes. Mean of three independent experiments with SEM. *p<0.001 compared with controls.
ChIP was performed as described in Tu et al. Developmental Cell (2011) 21:1077-91. The following antibodies were used to perform ChIP: anti-H3K27Me3 (Cell Signaling, Cat. No: 9733), anti-BAF155 (Santa Cruz, Cat. No: sc-9746), anti-RNA polymerase II (Santa Cruz, Cat. No: sc-899) or anti-EZH2 (Cell Signaling, Cat. No: 5246). An isotype matched IgG was used as a negative control. ChIP DNA was analyzed by quantitative PCR against the promoter of the indicated genes using the following primers: DAB2 Forward: 5′-[…]-3′ (SEQ ID NO: 10) and DAB2 Reverse: 5′-[…]-3′ (SEQ ID NO: 11); DLC1 Forward: 5′-[…]-3′ (SEQ ID NO: 12) and DLC1 Reverse: 5′-[…]-3′ (SEQ ID NO: 13); NOXA Forward: 5′-[…]-3′ (SEQ ID NO: 14) and NOXA Reverse: 5′-[…]-3′ (SEQ ID NO: 15); TIMP3 Forward: 5′-[…]-3′ (SEQ ID NO: 16) and TIMP3 Reverse: 5′-[…]-3′ (SEQ ID NO: 17).

For assay [3], the system named is CARM1-expressing A1847 tumors. The assay is described as follows: Intrabursal orthotopic xenograft, CARM1-expressing A1847 cells. The class given is in vivo, NSG mice. Conditions: 50 mg/kg daily i.p., three weeks. As to the method:
FIG. 76 illustrates images of reproductive tracks with tumors from control or GSK126 treated mice. CARM1-high A1847 ovarian cancer cells were unilaterally injected into the ovarian bursa sac of immunocompromised mice (n=5/group). Tumors were allowed to establish for one week before the mice were randomized into two different treatment groups. Mice were treated with vehicle control or GSK126 (50 mg/kg daily) for an additional three weeks. At the end of treatment, the mice were euthanized.
FIG. 77 illustrates tumor weights for the tumors described in FIG. 76. Tumor weight was measured as a surrogate for tumor burden from the control and GSK126 treated mice.
FIG. 78 illustrates the percent survival for the animals treated in FIG. 76. After stopping treatment, the mice from the indicated groups were followed for survival. […] P-value was calculated by log-rank test.
The protocols were approved by the Institutional Animal Care and Use Committee (IACUC). For in vivo experiments, the sample size of 5 mice per group was determined based on the data shown from in vitro experiments. […] At the end of the experiments, tumors were surgically dissected and tumor burden was calculated based on tumor weight. For survival experiments, after stopping the treatment, the mice were followed for mortality or when the tumor burden reached 10% of body weight as determined by The Wistar Institute IACUC guideline.

Regarding `CC[C@H](C)n1cc(C)c2c(C(=O)NCc3c(C)cc(C)[nH]c3=O)cc(-c3ccc(N4CCNCC4)nc3)cc21` [GSK126, (S)-1-(sec-butyl)-N-((4,6-dimethyl-2-oxo-1,2-dihydropyridin-3-yl)methyl)-3-methyl-6-(6-(piperazin-1-yl)pyridin-3-yl)-1H-indole-4-carboxamide], the “relation of CARM1 expression level and cellular response” value in assay [1] (10 μM, panel of EOC cell lines) was “correlation between CARM1 expression levels and cellular response”. The “IC50 values from response curves” value in assay [1] (CARM1-expressing cell lines (A1847, OVCAR10, PEO4) versus panel of normal and ovarian cancer cell lines, values only in FIG. 8) was “Significantly reduced IC50 values”. Moreover, in the assay on CARM1-expressing tumors, the H3K27Me3 staining entry is on record as “H3K27Me3 staining was decreased”. Also, the “association of BAF155 and Pol II with the TIMP3 promoter” value in assay [2] (10 μM) is given as “CARM1 KO but not EZH2 inhibitor GSK 126 treatment decreased the association”. Moreover, in assay [2] (DAB2, DLC1, NOXA loci), the “EZH2's association with its target genes” value was “without affecting EZH2's association with its target genes” and the “H3K27Me3 occupancy of target genes” value is “decreased H3K27Me3 occupancy”. The “tumor growth (tumor weight)” value in assay [3] is recorded as “significantly inhibited”.
